Assay results: patent publication US12673052B2, “Combinations for the treatment of cancer” (Exelixis, Inc., priority 2020, dated 2026)

Legend:
[1] = tested on: CT26 colon carcinoma cells; test: Efficacy after oral dosing in CT26 tumor bearing female Balb/c mice; assay type: in vivo
Source text: In this study, the inhibitory effects of Compound 1 as a single agent and in combination with an anti-PD-1 inhibitor in Balb/c mice grafted with CT26 colon carcinoma cells were studied. CT26 cells inoculated into syngeneic mice are highly tumorigenic (Brattain et al. 1980) and share molecular features with undifferentiated, invasive human colorectal carcinoma cells (Castle et al. 2014). Therefore, the CT26 cell line can serve as a valid cellular model for the metastatic and poorly differentiated human colorectal cancer. Moreover, this model has been reported to express significant levels of RTKs, indicating a potential reliance on these signaling pathway for the maintenance of a tumorigenic phenotype in vivo (Pryzybyszewska et al. 2017).
CT26 colon carcinoma cells (ATCC, CRL-2638) were thawed from the Exelixis pharmacology cell bank into T-75 flasks (Corning, 43064U) using fresh culture medium, ie, RPMI-1640 containing 10% fetal bovine serum (GIBCO, A384002). […]
Oral doses were administered via a […], 1.5″ stainless steel needle with silicone tip (VWR, 20068-666). […] Survival was monitored for a maximum of 40 days. […]
All animals were measured twice a week for tumor volume and body weight using Studylog software.
Significance values represent differences in comparison to vehicle or anti-PD-1 treatment groups and were determined using a nonparametric Mann-Whitney U-test. […]

[2] = Single-dose plasma PK, IV and oral (PEG 400:EtOH:RO water); assay type: in vivo, rats
Protocol: Plasma PK of Compound 1 was characterized in rats and beagle dogs. Toxicokinetic (TK) evaluations of oral Compound 1 were evaluated in repeat-dose studies in rats and dogs. Plasma protein binding was determined in mouse, rat, dog, monkey, and human plasma in vitro. Biotransformation and metabolite profiling of Compound 1 were investigated in vitro using mouse, rat, dog, monkey, and human liver microsomal fractions and hepatocytes and in vivo in rats and dogs. P-glycoprotein (P-gp) and breast cancer resistance protein (BCRP) transporter interaction studies, in vitro experiments evaluating cytochrome P450 (CYP) induction and inhibition by Compound 1, and CYP and glucuronosyltransferase (UGT) substrate specificity studies of Compound 1 were also performed.
The PK and TK of Compound 1 were assessed in rats and dogs after intravenous (IV; only single dose PK) and oral (PO) administration of Compound 1 in formulations prepared in polyethylene glycol 400 (PEG 400): ethanol (EtOH): reverse osmosis water (RO Water) (45:5:50 v/v/v).
Median time to maximum plasma concentration (Tmax) occurred at approximately 2-3 hours in rats and dogs.
The mean plasma t1/2, z values were approximately 9 hours in rats and 4 hours in dogs. Interspecies scaling based on body weight to predict PK parameters in humans could not be performed because dogs (larger species) cleared Compound 1 faster than rats (smaller species). Therefore, the human PK was projected based on one species (rat). […] This apparent clearance value (CL/F) was used to predict steady-state exposure (AUC and average plasma concentration [Cavg]) in humans for the proposed first-in-human (FIH) starting dose for Study Compound 1-001.

[3] = Tablet versus PIB formulation, single oral 20 mg dose, parallel design; assay type: in vivo, dogs; conditions: for half-life: po, read-out: t1/2, z (mean) (converted)
Protocol: In a parallel design study with a total of 24 dogs (1:1 treatment allocation ratio), Group 1 received Compound 1 as a 20-mg oral tablet and Group 2 received a 20-mg reconstituted oral suspension of the PIB formulation. For each dose group, blood samples were collected from each animal at pre-dose and up to 24 hours post-dose for Compound 1 plasma concentration measurements.

[4] = tested on: CYP1A2; test: Cytochrome P450 induction (mRNA levels) in fresh primary human hepatocytes; assay type: in vitro ADME
[5] = Liver microsomal stability assay; assay type: in vitro ADME, dog; conditions: liver microsomes
Protocol: In the liver microsomal stability assay, CLint was 0.601 mL/min/g liver in mouse, 0.563 mL/min/g liver in rat, 0.315 mL/min/g liver in dog, 0.734 mL/min/g liver in monkey, and 0.639 mL/min/g liver in human. In the hepatocyte stability assay, Compound 1 CLint was 0.373 mL/min/g liver in mouse, 0.285 mL/min/g liver in rat, 1.08 mL/min/g liver in dog, 0.533 mL/min/g liver in monkey, and 0.317 mL/min/g liver in human.

CNC(=O)c1cc2c(Oc3ccc(NC(=O)C4(C(=O)Nc5ccc(F)cc5)CC4)cc3)ccnc2cc1OC [Compound 1, 1-N′-(4-Fluorophenvl)-1-N-[4-[7-methoxy-6-(methylcarbamovl)quinolin-4-yl]oxyphenyl]cyclopropane-1,1-dicarboxamide]
survival (Kaplan Meier) ([1]; 40-day dosing, P<0.0001 Compound 1 vs vehicle, P<0.0001 combination vs aPD-1 alone, P<0.05 combination vs Compound 1): Survival benefit and dose response
tumor growth ([1]; single agent 1, 3, 10, and 30 mg/kg/day for 40 days): tumor growth delay
bioavailability ([2]; rat, plasma, po, 0.09-0.27 mg/kg, read-out: Oral absolute bioavailability): 62 to 77%
half-life ([2]; rat, plasma, after oral administration, read-out: terminal phase half-life (t1/2, z)): 4.5 to 5.3 h
Tmax ([2]; rat, plasma, single oral dose, read-out: Median time to maximum plasma concentration (Tmax)): 2 to 3 h
clearance ([2]; rat, plasma, single-dose IV 0.09-0.27 mg/kg, read-out: mean plasma clearance (CL) (converted)): 0.0234 L/h/kg
half-life ([2]; rat, plasma, single-dose IV, read-out: mean plasma t1/2, z (converted)): ~9 h
Vd ([2]; rat, plasma, single-dose IV, read-out: mean volume of distribution at steady-state (Vss)): 0.167 L/kg
increase of exposure (Cmax and AUC0-inf) with dose ([2]; single oral doses 0.09-0.27 mg/kg): approximately dose proportionally
mean AUC0-24 of PIB formulation higher than tablet formulation ([3]; 20 mg single oral dose): 49%
mean Cmax of PIB formulation higher than tablet formulation ([3]; 20 mg single oral dose): 61%
Tmax ([3]; beagle, dog, plasma, oral, 20 mg, both formulations (PIB and tablet), read-out: median tmax): 3 h
half-life ([3]; beagle, dog, plasma, 20 mg, 20 mg reconstituted oral suspension of PIB formulation): 4.85 h
half-life ([3]; beagle, dog, plasma, 20 mg, 20-mg oral tablet): 5.66 h
EC50 ([4]; human, fresh primary human hepatocytes, mRNA induction, read-out: half-maximal effective concentration (EC50)): 0.93 µM
maximal induction effect (Emax) ([4]; mRNA, 0.1-100 μM): 5 fold
CLint [5]: 0.315 mL/min/g liver
